Data on 23 compounds can be found in patent US12528816B2, “Substituted imidazo [1,2-b] pyridazines and [1, 2, 4] triazolo [ 4,3-b] pyridazines as camkii inhibitors” (Cardurion Pharmaceuticals, INC., priority 2020, dated 2026).

In one experiment the target is T1, human CaMKIIδ (Homo sapiens, UniProt Q13557).
T1 construct: Full-length, glutathione-S-transferase(GST)-tagged, human CaMKIIδ was purchased from Carna Biosciences; purchased Carna Biosciences (CaMKIIδ); Wako Pure Chemical Industries (calmodulin) 02-111
Nature of the experiment: Evaluation of in vitro CaMKII inhibitory activity (binding assay, TR-FRET). Conditions: human CaMKIIδ, TR-FRET binding assay; class symbols A/B/C; read-out: Act (CaMKII inhibitory activity, binding assay). On the procedure:
Evaluation of In Vitro CaMKII Inhibitory Activity (Binding Assay)
In vitro CaMKIIδ inhibitory activity was evaluated by a binding assay.
Full-length bovine calmodulin was purchased from Wako Pure Chemical Industries (Osaka, Japan). Terbium-labeled anti-GST anti body (Tb-anti-GST Ab) was purchased from Life Technologies (Carlsbad, CA, USA). Fluorescent probe ligand, 5,5-difluoro-7,9-dimethyl-3-(3-oxo-3-((3-((4-(3-(piperazin-1-yl)phenyl)pyrimidin-2-yl)amino)phenyl)amino) propyl)-5H-dipyrrolo[1,2-c:2′,1′-f]
Time-resolved fluorescence resonance energy transfer (TR-FRET) assay
The fluorescent probe ligand, 5,5-difluoro-7,9-dimethyl-3-(3-oxo-3-((3-((4-(3-(piperazin-1-yl)phenyl)pyrimidin-2-yl)amino)phenyl)amino) propyl)-5H-dipyrrolo[1,2-c:2′,1′-f] […] After shaded incubation of the protein-probe mixture on ice for 30 min, the premix was dispensed in the assay plate including test inhibitors with 4 fold dilution series of eight concentrations. After 1 hr incubation at room temperature, TR-FRET signals were measured in duplicate using an EnVision microplate reader (Perkin Elmer, Waltham, MA, USA).
The half maximal inhibitory concentration (IC50) of test compounds was calculated by fitting the data with the logistic equation using XLfit (IDBS, Guildford, UK).
(In general: Time-resolved FRET reads energy transfer from a long-lived donor to a nearby acceptor.)
`CCN(CC)CCNC(=O)c1cccc(-c2cnn3ccc(-c4ccc(C#N)c(O[C@@H](C)Cn5cnnn5)c4)nc23)c1` [Example 1, 3-[5-(4-cyano-3-{[(2S)-1-(1H-tetrazol-1-yl)propan-2-yl]oxy}phenyl)pyrazolo[1,5-a]pyrimidin-3-yl]-N-[2-(diethylamino)ethyl]benzamide]: the IC50 was in the range of 0.01 to 0.1 µM.
With `Cc1nn2ccc(-c3ccc(F)c(O[C@@H](C)Cn4cnnn4)c3)nc2c1-c1cccs1` [Example 57, 1-[(2S)-2-{2-fluoro-5-[2-methyl-3-(thiophen-2-yl)pyrazolo[1,5-a]pyrimidin-5-yl]phenoxy}propyl]-1H-tetrazole], the IC50 fell in the range of 0.01 to 0.1 µM.
With `C[C@@H](Cn1cncn1)Oc1cccc(-c2ccn3ncc(-c4cccs4)c3n2)c1` [Example 61, 1-[(2S)-2-{3-[3-(thiophen-2-yl)pyrazolo[1,5-a]pyrimidin-5-yl]phenoxy}propyl]-1H-1,2,4-triazole], the IC50 is less than 0.01 µM.
Same read-out and setting: as for `C[C@@H](Cn1cnnn1)Oc1cc(-c2ccc3ncc(-c4ccccc4C#N)n3n2)ccc1F` [Example 121, 2-[6-(4-fluoro-3-{[(2S)-1-(1H-tetrazol-1-yl)propan-2-yl]oxy}phenyl)imidazo[1,2-b]pyridazin-3-yl]benzonitrile], the figure is less than 0.01 µM; as for `C[C@@H](Cn1cnnn1)Oc1cc(-c2ccc3ncn(-c4ncccc4C#N)c3n2)ccc1F` [Example 150, 2-[5-(4-fluoro-3-{[(2S)-1-(1H-tetrazol-1-yl)propan-2-yl]oxy}phenyl)-3H-imidazo[4,5-b]pyridin-3-yl]pyridine-3-carbonitrile], less than 0.01 µM.
Turning to `C[C@@H](Cn1cnnn1)Oc1cc(-c2ccc3ncn(-c4ncn(C)c4C#N)c3n2)ccc1F` [Example 173, 4-[5-(4-fluoro-3-{[(2S)-1-(1H-tetrazol-1-yl)propan-2-yl]oxy}phenyl)-3H-imidazo[4,5-b]pyridin-3-yl]-1-methyl-1H-imidazole-5-carbonitrile], the IC50 is less than 0.01 µM.

Still in this experiment, the particulars now being: in vitro CaMKII inhibitory activity (binding assay), human CaMKIIδ; read-out: Act.
`C[C@@H](Cn1cnnn1)Oc1cccc(-c2ccc3ncc(-c4ccccc4C#N)n3n2)c1` [Example 239, 2-[6-(3-{[(2S)-1-(1H-tetrazol-1-yl)propan-2-yl]oxy}phenyl)imidazo[1,2-b]pyridazin-3-yl]benzonitrile]: the IC50 is less than 0.01 µM.
As to `C[C@@H](Cn1cnnn1)Oc1cncc(-c2ccc3ncc(-c4ccccc4C#N)n3n2)c1` [Example 244, 2-[6-(5-{[(2S)-1-(1H-tetrazol-1-yl)propan-2-yl]oxy}pyridin-3-yl)imidazo[1,2-b]pyridazin-3-yl]benzonitrile], the IC50 was less than 0.01 µM.
As to `C[C@@H](Cn1cnnn1)Oc1cc(-c2ccc3ncc(-c4ncccc4C#N)n3n2)ccc1F` [Example 247, 2-[6-(4-fluoro-3-{[(2S)-1-(1H-tetrazol-1-yl)propan-2-yl]oxy}phenyl)imidazo[1,2-b]pyridazin-3-yl]pyridine-3-carbonitrile], the IC50 was less than 0.01 µM.
On to `C[C@@H](Cn1cnnn1)Oc1cccc(-c2ccc3ncc(-c4cnccc4C#N)n3n2)c1` [Example 251, 3-[6-(3-{[(2S)-1-(1H-tetrazol-1-yl)propan-2-yl]oxy}phenyl)imidazo[1,2-b]pyridazin-3-yl]pyridine-4-carbonitrile], for which the IC50 is less than 0.01 µM.
For the compound `C[C@@H](Cn1cnnn1)Oc1cccc(-c2ccc3ncc(-c4cccn(C)c4=O)n3n2)c1` [Example 253, 1-methyl-3-[6-(3-{[(2S)-1-(1H-tetrazol-1-yl)propan-2-yl]oxy}phenyl)imidazo[1,2-b]pyridazin-3-yl]-1,2-dihydropyridin-2-one], the IC50 was less than 0.01 µM.
The same measure, in the same setting: the result for `C[C@@H](Cn1cnnn1)Oc1cccc(-c2ccc3ncc(-c4cncnc4C#N)n3n2)c1` [Example 267, 5-[6-(3-{[(2S)-1-(1H-tetrazol-1-yl)propan-2-yl]oxy}phenyl)imidazo[1,2-b]pyridazin-3-yl]pyrimidine-4-carbonitrile] reads less than 0.01 µM; that for `C[C@@H](Cn1cnnn1)Oc1cc(-c2ccc3ncc(-c4c[n+]([O-])ccc4C#N)n3n2)ccc1F` [Example 269, (S)-3-(6-(3-((1-(1H-tetrazol-1-yl)propan-2-yl)oxy)-4-fluorophenyl)imidazo[1,2-b]pyridazin-3-yl)-4-cyanopyridine N-oxide], less than 0.01 µM; that for `C[C@@H](Cn1cnnn1)Oc1cccc(-c2ccc3ncc(-c4ncccc4C#N)n3n2)c1` [Example 271, 2-[6-(3-{[(2S)-1-(1H-tetrazol-1-yl)propan-2-yl]oxy}phenyl)imidazo[1,2-b]pyridazin-3-yl]pyridine-3-carbonitrile], less than 0.01 µM.
Same read-out and setting: the result for `C[C@@H](Cn1cnnn1)Oc1cc(-c2ccc3ncc(-c4cnccc4C#N)n3n2)ccc1F` [Example 275, 3-[6-(4-fluoro-3-{[(2S)-1-(1H-tetrazol-1-yl)propan-2-yl]oxy}phenyl)imidazo[1,2-b]pyridazin-3-yl]pyridine-4-carbonitrile] reads less than 0.01 µM; that for `C[C@@H](Cn1cnnn1)Oc1cccc(-c2ccc3ncn(-c4ncccc4C#N)c3n2)c1` [Example 284, 2-[5-(3-{[(2S)-1-(1H-tetrazol-1-yl)propan-2-yl]oxy}phenyl)-3H-imidazo[4,5-b]pyridin-3-yl]pyridine-3-carbonitrile], less than 0.01 µM; that for `COc1cc(-c2cnc3ccc(-c4cccc(O[C@@H](C)Cn5cnnn5)c4)nn23)c(C#N)cn1` [Example 289, 6-methoxy-4-[6-(3-{[(2S)-1-(1H-tetrazol-1-yl)propan-2-yl]oxy}phenyl)imidazo[1,2-b]pyridazin-3-yl]pyridine-3-carbonitrile], less than 0.01 µM.
In the case of `C[C@@H](Cn1cnnn1)Oc1cccc(-c2ccc3ncn(-c4cc(F)ccc4C#N)c3n2)c1` [Example 291, 4-fluoro-2-[5-(3-{[(2S)-1-(1H-tetrazol-1-yl)propan-2-yl]oxy}phenyl)-3H-imidazo[4,5-b]pyridin-3-yl]benzonitrile], the IC50 is less than 0.01 µM.
Take `C[C@@H](Cn1cnnn1)Oc1cnnc(-c2ccc3ncc(-c4cc(F)ccc4C#N)n3n2)c1` [Example 298, 4-fluoro-2-[6-(5-{[(2S)-1-(1H-tetrazol-1-yl)propan-2-yl]oxy}pyridazin-3-yl)imidazo[1,2-b]pyridazin-3-yl]benzonitrile]: the IC50 fell in the range of 0.01 to 0.1 µM.
With `COc1ccnc(-c2cnc3ccc(-c4cccc(O[C@@H](C)Cn5cnnn5)c4)nn23)c1C#N` [Example 300, 4-methoxy-2-[6-(3-{[(2S)-1-(1H-tetrazol-1-yl)propan-2-yl]oxy}phenyl)imidazo[1,2-b]pyridazin-3-yl]pyridine-3-carbonitrile], the IC50 is less than 0.01 µM.
Still for that read-out and setting: as for `C[C@@H](Cn1cnnn1)Oc1cc(-c2ccc3ncn(-c4cc(F)ccc4C#N)c3n2)ncn1` [Example 305, 4-fluoro-2-[5-(6-{[(2S)-1-(1H-tetrazol-1-yl)propan-2-yl]oxy}pyrimidin-4-yl)-3H-imidazo[4,5-b]pyridin-3-yl]benzonitrile], the figure is 0.01 to 0.1 µM.
For the compound `C[C@@H](Cn1cnnn1)Oc1ccnc(-c2ccc3ncc(-c4cc(F)ccc4C#N)n3n2)c1` [Example 311, 4-fluoro-2-[6-(4-{[(2S)-1-(1H-tetrazol-1-yl)propan-2-yl]oxy}pyridin-2-yl)imidazo[1,2-b]pyridazin-3-yl]benzonitrile], the IC50 is less than 0.01 µM.
The same measure, in the same setting: as for `COc1ccc(C#N)c(-c2cnc3ccc(-c4cccc(O[C@@H](C)Cn5cnnn5)c4)nn23)n1` [Example 313, 6-methoxy-2-[6-(3-{[(2S)-1-(1H-tetrazol-1-yl)propan-2-yl]oxy}phenyl)imidazo[1,2-b]pyridazin-3-yl]pyridine-3-carbonitrile], the figure is less than 0.01 µM.
